Test results as given in article PMC11985661 (Naunyn-Schmiedeberg's Archives of Pharmacology, 2024).
Read-outs that look alike come from different tables or passages of the source.

What was measured:
EGFR^T790M = target: T1, EGFR^T790M (Homo sapiens, UniProt P00533, T790M); test: EGFR^T790M kinase inhibition assay (HTRF); format: biochemical; details: mean of three separate experiments
T1 construct: purchased Sigma
Method: The study utilized the homogeneous time resolved fluorescence (HTRF) assay to evaluate the kinase activity of EGFR^T790M mutant. The EGFR^T790M enzyme and ATP were obtained from Sigma. Initially, the tested chemical was first incubated for 5 min with the EGFR^T790M enzyme and its substrates in an enzymatic buffer. This pre-incubation step allowed the compound to interact with the enzyme before the catalytic reaction was initiated. […] The assay was carried out at room temperature for 30 min. The samples were mixed with detection reagents containing EDTA to stop the enzymatic process. The detection phase was allowed to proceed for 1 h. By utilizing GraphPad Prism 5.0 software, the inhibitory potency of the tested compounds was determined by calculating the half-maximal inhibitory concentration (IC50) values. Three independent measurements were done to determine the concentration of each compound.

HCT116 = test: MTT cytotoxicity assay; format: cell-based; details: Homo sapiens, HCT-116, 72 h, mean of three separate experiments
Method: (§1) Numerous cancer cell lines were procured from the American Type Culture Collection (ATCC) situated in Manassas, USA. […] The culture medium was supplemented with penicillin (100 units/mL), streptomycin ([…]), and heat-inactivated fetal bovine serum (10%). The cultivation of these cancer cells was carried out in a humidified atmosphere with 5% (v/v) CO2 at a temperature of 37 °C.
(§2) The 3-[4,5-dimethylthiazole-2-yl]-2,5-diphenyltetrazolium bromide (MTT) assay was used to evaluate the cytotoxicity of different substances or treatments. A commonly used approach for assessing the viability and proliferation of cells, including the cancer cell lines described, is colorimetric analysis.
(§3) Actively proliferating cells from different cancer cell lines were first trypsinized and quantified. […] These seeded cells were incubated in a humidified environment at 37 °C for 24 h to allow for cell attachment and acclimation.
(§4) Following the initial incubation, the cells were subjected to different doses of the chemicals under investigation, ranging from 0.1 to 1000 μM, for a duration of 72 h. The MTT assay was used to evaluate the treated cells’ vitality. Specifically, the culture media were removed, and the cells were incubated with 200 μl of 5% MTT solution per well.
(§5) Due to this, the MTT dye was metabolized by the living cells over the course of 2 h, forming colorful, insoluble formazan crystals.
(§6) This allowed the viable cells to metabolize the MTT dye into colored, insoluble formazan crystals over a 2-h period. After this incubation, the formazan crystals were dissolved in 200 μl of acidified isopropanol per well for 30 min after the residual MTT solution was withdrawn. This dissolution step was carried out at room temperature with a MaxQ 2000 plate shaker, covered with aluminum foil and continuously shaking.
(§7) The absorbance of the dissolved formazan crystals was measured at 570 nm through the use of Stat FaxR 4200 plate reader.

HepG2 = test: MTT cytotoxicity assay; format: cell-based; details: Homo sapiens, read-out: IC50 HepG2
Method: as §1, §2, §3, §4, §5, §6, §7

A549 = test: MTT cytotoxicity assay; format: cell-based; details: Homo sapiens, 72 h, mean of three separate experiments
Method: as §1, §2, §3, §4, §5, §6, §7

MCF-7 = test: MTT cytotoxicity assay; format: cell-based; details: Homo sapiens, read-out: IC50 MCF-7
Method: as §1, §2, §3, §4, §5, §6, §7

VEGFR-2 = target: T2, VEGFR-2 (Homo sapiens, UniProt P35968); test: In vitro VEGFR-2 kinase assay (Alpha Screen, anti-phosphotyrosine antibody); format: biochemical; details: mean of three separate experiments
T2 construct: purchased Millipore, UK
T2 sequence (P35968 20-1356): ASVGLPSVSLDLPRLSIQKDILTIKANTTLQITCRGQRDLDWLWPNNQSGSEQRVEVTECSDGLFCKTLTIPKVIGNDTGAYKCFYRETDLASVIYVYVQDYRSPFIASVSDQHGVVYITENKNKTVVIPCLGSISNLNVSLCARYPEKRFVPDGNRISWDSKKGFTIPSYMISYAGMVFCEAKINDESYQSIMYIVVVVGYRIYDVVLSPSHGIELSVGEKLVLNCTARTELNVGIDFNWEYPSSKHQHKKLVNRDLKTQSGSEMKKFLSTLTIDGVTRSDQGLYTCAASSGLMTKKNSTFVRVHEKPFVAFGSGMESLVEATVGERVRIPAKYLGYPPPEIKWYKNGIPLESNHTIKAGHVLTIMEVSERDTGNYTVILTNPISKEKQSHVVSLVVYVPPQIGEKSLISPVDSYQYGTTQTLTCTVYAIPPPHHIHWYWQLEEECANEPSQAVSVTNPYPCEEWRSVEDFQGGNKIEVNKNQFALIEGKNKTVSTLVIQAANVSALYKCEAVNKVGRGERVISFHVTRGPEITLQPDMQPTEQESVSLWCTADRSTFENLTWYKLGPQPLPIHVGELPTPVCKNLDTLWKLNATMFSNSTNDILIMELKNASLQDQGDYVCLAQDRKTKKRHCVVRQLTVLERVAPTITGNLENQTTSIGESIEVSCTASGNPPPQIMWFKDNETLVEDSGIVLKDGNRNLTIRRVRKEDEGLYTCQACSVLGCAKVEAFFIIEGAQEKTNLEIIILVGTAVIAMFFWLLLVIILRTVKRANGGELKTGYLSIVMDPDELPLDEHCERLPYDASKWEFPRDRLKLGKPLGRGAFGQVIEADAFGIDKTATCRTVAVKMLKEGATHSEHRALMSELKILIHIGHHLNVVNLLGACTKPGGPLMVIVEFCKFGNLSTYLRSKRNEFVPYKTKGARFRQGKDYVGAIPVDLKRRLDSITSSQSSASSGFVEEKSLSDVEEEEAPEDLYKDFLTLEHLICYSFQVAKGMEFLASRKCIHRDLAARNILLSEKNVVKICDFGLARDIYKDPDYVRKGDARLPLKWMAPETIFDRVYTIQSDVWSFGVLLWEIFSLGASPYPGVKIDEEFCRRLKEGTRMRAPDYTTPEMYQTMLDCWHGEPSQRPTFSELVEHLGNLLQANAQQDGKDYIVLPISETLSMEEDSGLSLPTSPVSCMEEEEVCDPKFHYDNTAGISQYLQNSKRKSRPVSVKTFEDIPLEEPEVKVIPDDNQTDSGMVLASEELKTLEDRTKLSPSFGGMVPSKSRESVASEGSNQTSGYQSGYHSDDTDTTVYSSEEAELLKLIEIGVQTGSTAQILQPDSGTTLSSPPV
Method: Analyzing the assay of VEGFR-2 kinase involved utilizing the Alpha Screen system (PerkinElmer, USA) and an anti-phosphotyrosine antibody in accordance with the manufacturer’s protocol. A solution containing 50 mM Tris–HCl (pH 7.5), 5 mM MnCl2, 5 mM MgCl2, 0.01% Tween-20, and 2 mM DTT was used to conduct the enzyme reactions. A total of 10 μM ATP, 0.1 μg/mL of biotinylated poly-GluTyr (in a 4:1 ratio), and 0.1 nM of VEGFR-2 (Millipore, UK) were all added in the reaction mixture.
After an overnight dark incubation, the plate was read using an ELISA Reader (PerkinElmer, USA). The baseline control was represented by wells with biotinylated poly-GluTyr (4:1) and the enzyme but without ATP, and the reaction control was provided by wells with the substrate and the enzyme but not the tested compounds.
The percentage inhibition was computed by comparing contrasting the compound-treated samples with the control incubations.

T1 sequence (P00533 25-1210 T790M): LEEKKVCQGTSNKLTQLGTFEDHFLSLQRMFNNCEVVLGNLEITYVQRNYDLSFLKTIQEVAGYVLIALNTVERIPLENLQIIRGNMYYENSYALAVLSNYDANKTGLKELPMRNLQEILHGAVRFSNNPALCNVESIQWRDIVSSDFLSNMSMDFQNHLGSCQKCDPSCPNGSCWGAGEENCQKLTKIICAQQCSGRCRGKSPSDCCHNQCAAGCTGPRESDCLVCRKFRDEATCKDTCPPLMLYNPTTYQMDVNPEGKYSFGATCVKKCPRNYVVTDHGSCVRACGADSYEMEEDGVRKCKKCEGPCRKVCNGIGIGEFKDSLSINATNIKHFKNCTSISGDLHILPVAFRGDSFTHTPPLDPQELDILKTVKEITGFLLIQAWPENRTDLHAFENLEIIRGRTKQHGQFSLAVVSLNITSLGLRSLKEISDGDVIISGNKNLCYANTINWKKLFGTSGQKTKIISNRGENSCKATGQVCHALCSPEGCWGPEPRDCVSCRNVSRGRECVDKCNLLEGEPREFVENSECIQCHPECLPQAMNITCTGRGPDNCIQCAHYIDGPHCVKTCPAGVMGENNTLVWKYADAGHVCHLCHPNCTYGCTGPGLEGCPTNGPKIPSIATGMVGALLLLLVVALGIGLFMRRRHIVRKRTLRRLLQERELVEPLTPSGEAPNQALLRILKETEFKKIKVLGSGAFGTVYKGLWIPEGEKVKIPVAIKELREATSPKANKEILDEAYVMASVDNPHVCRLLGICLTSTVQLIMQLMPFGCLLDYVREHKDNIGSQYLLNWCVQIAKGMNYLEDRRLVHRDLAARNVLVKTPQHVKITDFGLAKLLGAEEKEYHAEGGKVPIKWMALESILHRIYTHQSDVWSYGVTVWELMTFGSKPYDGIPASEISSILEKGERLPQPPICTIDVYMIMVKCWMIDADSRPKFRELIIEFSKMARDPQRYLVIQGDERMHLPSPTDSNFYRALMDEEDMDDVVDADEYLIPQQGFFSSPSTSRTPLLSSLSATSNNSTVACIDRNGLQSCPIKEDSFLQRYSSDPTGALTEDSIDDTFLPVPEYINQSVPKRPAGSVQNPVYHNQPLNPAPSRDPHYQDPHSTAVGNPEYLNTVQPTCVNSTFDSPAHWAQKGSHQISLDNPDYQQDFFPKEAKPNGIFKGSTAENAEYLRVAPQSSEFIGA

In the case of `C[C@@H]1O[C@@H](OC[C@H]2O[C@@H](Oc3c(-c4ccc(O)c(O)c4)oc4cc(O)cc(O)c4c3=O)[C@H](O)[C@@H](O)[C@@H]2O)[C@H](O)[C@H](O)[C@H]1O` [Rutin (3), rutin], the IC50 (EGFR^T790M) is reported as 0.66 µM, the IC50 (HCT116) is reported as 15.6 µM and the IC50 (HepG2; HepG2, MTT, 72 h, mean of three separate experiments) is reported as 14.9 µM. The IC50 (A549) was 8.71 µM, the IC50 (MCF-7; MCF7, MTT, 72 h, mean of three separate experiments) was 12.3 µM and the IC50 (VEGFR-2) was 1.18 µM.

`C#Cc1cccc(Nc2ncnc3cc(OCCOC)c(OCCOC)cc23)c1` [Erlotinib] showed an IC50 (MCF-7; MCF7, 72 h) of 8.2 µM.

In the case of `CNC(=O)c1cc(Oc2ccc(NC(=O)Nc3ccc(Cl)c(C(F)(F)F)c3)cc2)ccn1` [Sorafenib], the IC50 (HepG2; HepG2, 72 h) is reported as 4 µM.
